Results from PubChem BioAssay AID806 (SRMLSC, 2007).
Calls of active or inactive are those of the source. The rule behind the calls is not given here.

Tested on: virus-infected cells, CPE inhibition, dose response
Assay: PubChem AID 806
Conditions: for EC90: measured here: EC90 CPE inhibition; for CC50: measured here: cytotoxicity, cell viability IC50

| SMILES | EC50 | EC90 | CC50 |
| --- | --- | --- | --- |
| O=C(c1cnn2c(C(F)F)cc(-c3ccccc3)nc12)N1CCOCC1 | > 60 µM (inactive) | > 60 µM | > 60 µM |
| O=C1Cn2c(nc3ccccc32)N1c1ccccc1F | > 60 µM (inactive) | > 60 µM | > 60 µM |
| CC(c1ccco1)N(C(=O)CSc1ccc(Br)cc1)c1ccccn1 (stereo not given) | > 60 µM (inactive) | > 60 µM | > 60 µM |
| COc1ccccc1Nc1ncnc2c1cnn2-c1cccc(C)c1 | > 60 µM (inactive) | > 60 µM | > 60 µM |
| Cc1ccc(S(=O)(=O)N2CCCCC2C(=O)N2CCN(C)CC2)cc1 (stereo not given) | > 60 µM (inactive) | > 60 µM | > 60 µM |
| CCC(Oc1ccccc1)C(=O)Nc1ccc(-c2nnc(-c3ccco3)o2)cc1 (stereo not given) | > 60 µM (inactive) | > 60 µM | > 60 µM |
| CCC(C)NC(=O)C1CCCCN1S(=O)(=O)c1ccc(F)cc1 (stereo not given) | > 60 µM (inactive) | > 60 µM | > 60 µM |
| Cc1cccc(-n2ncc3c(N4CCCc5ccccc54)ncnc32)c1 | > 60 µM (inactive) | > 60 µM | > 60 µM |
| CCCN(CCC)C(=O)CCS(=O)(=O)c1cccc2nsnc12 | > 60 µM (inactive) | > 60 µM | > 60 µM |
| CCc1c(C)nc2[nH]nc(-c3ccccc3C)n2c1=O | > 60 µM (inactive) | > 60 µM | > 60 µM |
| N#CCC(=O)N1CCn2c1nc1ccccc12 | > 60 µM (inactive) | > 60 µM | > 60 µM |
| COC(=O)Cc1c(C)nc2nc(-c3ccccc3)[nH]n2c1=O | > 60 µM (inactive) | > 60 µM | > 60 µM |
| NC(=O)CSc1nnc2sc3ccccc3n12 | > 60 µM (inactive) | > 60 µM | > 60 µM |
| CCCCC(CC)CNC(=O)CCS(=O)(=O)c1cccc2nsnc12 (stereo not given) | > 60 µM (inactive) | > 60 µM | > 60 µM |
| CCCCN(C(=O)Cn1nnc2ccccc21)C(C(=O)NCCOC)c1ccc(OC)cc1 (stereo not given) | > 60 µM (inactive) | > 60 µM | > 60 µM |
| COc1ccc(S(=O)(=O)Nc2ccc(F)cc2)cc1N(C)S(=O)(=O)c1ccc(Cl)cc1 | > 60 µM (inactive) | > 60 µM | > 60 µM |
| COCCNC(=O)C(c1ccccc1C)N(CCOC)C(=O)Cn1nnc2ccccc21 (stereo not given) | > 60 µM (inactive) | > 60 µM | > 60 µM |
| Cc1sc2nc3c4ccccc4c(NCc4ccco4)nn3c(=O)c2c1C | > 60 µM (inactive) | > 60 µM | 4.2 µM |
| COc1ccc(OC)c(-n2c(SCC(=O)Nc3cc(C)on3)nnc2-c2c[nH]c3ccccc23)c1 | > 60 µM (inactive) | > 60 µM | > 60 µM |
| COC(=O)CSc1nnc([C@H](Cc2ccccc2)NC(=O)OC(C)(C)C)o1 | > 60 µM (inactive) | > 60 µM | > 60 µM |
| Cc1ccc(NC(=S)C2=C(O)c3sccc3N(C)S2(=O)=O)cc1 | 30.3 µM (inactive) | > 60 µM | > 60 µM |
| C=CCSc1nnc(-c2ccc(Cl)cc2Cl)o1 | 59.2 µM (inactive) | > 60 µM | > 60 µM |
| O=C(CCS(=O)(=O)c1cccc2nsnc12)NC1CCCCC1 | > 60 µM (inactive) | > 60 µM | > 60 µM |

| SMILES | EC50 | EC90 | CC50 |
| --- | --- | --- | --- |
| CCOc1ncccc1C(=O)NCc1ccc(OC)cc1 | > 60 µM (inactive) | > 60 µM | > 60 µM |
| O=C(CSc1ccc2nnc(-c3ccncc3)n2n1)NCc1ccco1 | > 60 µM (inactive) | > 60 µM | > 60 µM |
| Cc1c(C(=O)Nc2ccccn2)oc2ccccc12 | > 60 µM (inactive) | > 60 µM | > 60 µM |
| NS(=O)(=O)c1ccc(CCNC(=O)C2CCCCN2S(=O)(=O)c2ccccc2)cc1 (stereo not given) | > 60 µM (inactive) | > 60 µM | > 60 µM |
| CCOc1ccc(-c2nnc3ccc(SCC(=O)NCc4ccco4)nn23)cc1 | > 60 µM (inactive) | > 60 µM | > 60 µM |
| O=C(CSc1ccc2nnc(-c3cccc(F)c3)n2n1)NCc1ccco1 | > 60 µM (inactive) | > 60 µM | > 60 µM |
| O=C(O)c1ccc(CN2C(=O)CSC2=S)cc1 | > 60 µM (inactive) | > 60 µM | > 60 µM |
| Cc1ccc(CNC(=O)CCS(=O)(=O)c2cccc3nsnc23)cc1 | > 60 µM (inactive) | > 60 µM | > 60 µM |
| COC(=O)c1ccc(CSc2nnc3n(Cc4ccccc4OC)c(=O)c4ccccc4n23)o1 | > 60 µM (inactive) | > 60 µM | > 60 µM |
| O=C(c1cnn2c(C(F)(F)F)cc(-c3ccccc3)nc12)N1CCOCC1 | > 60 µM (inactive) | > 60 µM | > 60 µM |
| O=C1CC(C(=O)Nc2ccccc2)C2(CCCCC2)O1 (stereo not given) | > 60 µM (inactive) | > 60 µM | > 60 µM |
| CCCCCn1c(=O)c(C(=O)Nc2c(C)n(C)n(-c3ccccc3)c2=O)c(O)c2ccccc21 | > 60 µM (inactive) | > 60 µM | > 60 µM |
| O=C(Nc1ccccc1-c1ccccc1)c1ccc(NC(=O)c2ccco2)cc1 | > 60 µM (inactive) | > 60 µM | > 60 µM |
| O=C(NCc1ccco1)C1CCCCN1S(=O)(=O)c1ccc(F)cc1 (stereo not given) | > 60 µM (inactive) | > 60 µM | > 60 µM |
| CCN(CC)C(=O)CSc1nnc2sc3ccccc3n12 | > 60 µM (inactive) | > 60 µM | > 60 µM |
| COc1ccc(-n2ncc3c(N4CCc5ccccc54)ncnc32)cc1 | > 60 µM (inactive) | > 60 µM | > 60 µM |
| CC(=O)Nc1cccc(NC(=O)c2cc3ccccc3o2)c1 | > 60 µM (inactive) | > 60 µM | > 60 µM |
| Cc1nnc(SC(=O)N2c3ccccc3Sc3ccccc32)s1 | > 60 µM (inactive) | > 60 µM | > 60 µM |
| CCOc1ccc(NC(=O)C2CCCCN2S(=O)(=O)c2ccccc2)cc1 (stereo not given) | > 60 µM (inactive) | > 60 µM | > 60 µM |
| O=C(c1cnn2c(C(F)F)cc(C3CC3)nc12)N1CCOCC1 | > 60 µM (inactive) | > 60 µM | > 60 µM |
| O=C(Nc1ccccn1)c1cc2ccccc2o1 | > 60 µM (inactive) | > 60 µM | 23.9 µM |
| O=C(Nc1nc(-c2ccccc2)cs1)C1CCCCN1S(=O)(=O)c1ccccc1 (stereo not given) | > 60 µM (inactive) | > 60 µM | > 60 µM |
| COc1cccc(NC(=O)C2CC(=O)OC23CCOC(C)(C)C3)c1 (stereo not given) | > 60 µM (inactive) | > 60 µM | > 60 µM |

| SMILES | EC50 | EC90 | CC50 |
| --- | --- | --- | --- |
| Cn1c2ccccc2c(=O)c2c(=O)n(C3CCCCC3)c(-c3cccs3)nc21 | 59.3 µM (inactive) | > 60 µM | 6.45 µM |
| Cc1c(C(=O)Nc2ccc(Cl)cn2)oc2ccccc12 | > 60 µM (inactive) | > 60 µM | > 60 µM |
| O=C(CN1CCN(c2ncccn2)CC1)NCc1ccccc1 | > 60 µM (inactive) | > 60 µM | > 60 µM |
| NC(=O)c1c(NC(=O)CSc2nnc(Cc3ccccc3)n2Cc2ccco2)sc2c1CCC2 | > 60 µM (inactive) | > 60 µM | > 60 µM |
| Cc1cccc(NC(=O)CCS(=O)(=O)c2cccc3nsnc23)c1C | > 60 µM (inactive) | > 60 µM | > 60 µM |
| O=C(CCS(=O)(=O)c1cccc2nsnc12)NCc1ccccc1 | > 60 µM (inactive) | > 60 µM | > 60 µM |
| CC1Cc2ccccc2N1C(=O)CSc1nnc2sc3ccccc3n12 (stereo not given) | > 60 µM (inactive) | > 60 µM | 10.1 µM |
| Cc1nn2c(C(F)(F)F)cc(-c3ccc(Cl)cc3)nc2c1C(=O)N1CCOCC1 | > 60 µM (inactive) | > 60 µM | > 60 µM |
| CN1C(=O)Cn2c1nc1ccccc12 | > 60 µM (inactive) | > 60 µM | > 60 µM |
| COc1c(C(C)C)cc(NC(C)=O)cc1C(C)C | > 60 µM (inactive) | > 60 µM | > 60 µM |
| CCOC(=O)/C=C1\SCC(=O)N1CC(=O)NC12CC3CC(CC(C3)C1)C2 | > 60 µM (inactive) | > 60 µM | > 60 µM |
| O=C(Nc1c(-c2ccccc2)nc2sccn12)c1ccccc1 | 0.634 µM | > 60 µM | > 60 µM |
| COc1ccccc1NC(=O)c1cc2ccccc2o1 | > 60 µM (inactive) | > 60 µM | > 60 µM |
| O=C(Cn1cnc2ccccc2c1=O)N(Cc1ccco1)c1ccc(O)cc1 | > 60 µM (inactive) | > 60 µM | > 60 µM |
| Clc1cccc(Nc2ncnc3c2cnn3-c2ccccc2)c1 | > 60 µM (inactive) | > 60 µM | > 60 µM |
| O=C1/C(=C\c2ccco2)SC(=S)N1Cc1ccccc1 | > 60 µM (inactive) | > 60 µM | 6.46 µM |
| CCSc1nnc(-c2ccc(Cl)cc2Cl)o1 |  | > 60 µM | 43.7 µM |
| O=C(CSc1nnc2sc3ccccc3n12)N1CCN(c2ccccc2)CC1 |  | > 60 µM | > 60 µM |
| COc1ccccc1Cn1c(=O)c2ccccc2n2c(Sc3ncnc4sccc34)nnc12 | > 60 µM (inactive) | > 60 µM | > 60 µM |
| Cc1ccc(OCC(=O)Nc2ccc(-c3nnc(-c4ccco4)o3)cc2)cc1 | > 60 µM (inactive) | > 60 µM | > 60 µM |
| COc1ccccc1CNC(=O)c1ccc(S(=O)(=O)N2CCCC2)cc1 | > 60 µM (inactive) | > 60 µM | > 60 µM |
| CC(C)c1cccc(C(C)C)c1OCCCCN1CCCC1 | > 60 µM (inactive) | > 60 µM | > 60 µM |
| CC(=O)Nc1ccc(Nc2ncnc3c2cnn3-c2cccc(C)c2)cc1 | > 60 µM (inactive) | > 60 µM | > 60 µM |
